# Data from patent US20250170239A1, “CELLULAR REPROGRAMMING BY TARGETING THE GOLGI APPARATUS” (MUSC Foundation for Research Development, priority 2023, published 2025).
# Legend:
# Pmel CD8+ T cells [1] = test: FACS phenotyping (Tcm, stemness markers) of activated Pmel T cells; type: cell-based, mouse
# Source text: It was next determined if restoring H2S levels in activated T cells would alter their phenotype. To achieve steady-state levels of H2S in the T cell culture media, water-soluble H2S donor GYY4137 that slowly releases sustained levels of H2S up to 7 days in culture was used (Lee Z. W., et al., 2011, PLOS One, 6(6):e21077).
# Cbs-KO T cells = Cbs-KO T cells activated with anti-CD3/anti-CD28 with or without H2S
# Sirt1 = conditions: H2S-treated vs control T cells
# Procedure: (FIG. 18C) NAD+ and nicotinamide quantification from metabolomics dataset. (FIG. 18D) SIRT1 deacetylase activity in activated Pmel T cells (means of normalized OD values). (FIGS. 18E and 18F) Pmel T cells were activated with gp100 for 3 days in the presence of vehicle, GYY4137 (0.5 mM), or GYY4137+sirt1 inhibitor EX527 (10 μM). (FIG. 18E) Nuclear and cytoplasmic protein fractions were isolated and western blot analysis was performed to determine relative expression of nuclear and cytoplasmic Foxo1 (n=3). (FIG. 18F) Expression of CD62L and CD44 analyzed by FACS (n=3). (FIG. 18G) Splenocytes from wildtype and Cbs-knockout mice+/−GYY4137 activated with anti-CD3 and anti-CD28 antibodies followed by intranuclear staining for Foxo1. (FIG. 18H) Pmel T cells activated and expanded for metabolic flux analysis. Quantification of oxygen consumption rate (OCR), spare respiratory capacity (SRC), maximal respiration, and basal respiration (n=10 experimental replicates representative of 3 separate experiments). (FIG. 18I) Pmel T cells activated and expanded to day 5 for characterization of mitochondria using FACS, quantified by MFI values for mitoFM Deep Red, TMRM, and mitoSOX dyes (n=4). […] Shown is the quantification of mean oxygen consumption rate (OCR), spare respiratory capacity (SRC), maximal respiration, and basal respiration.
# Pmel CD8+ T cells [2] = conditions: 3 days gp100 and IL2 +/− 0.5 mM GYY4137
# Procedure: Different metabolites' intracellular levels were determined by performing comprehensive hydrophilic metabolites analysis using LC/MS platform (Metabolomics Core Facility, Northwestern University). Data were then analyzed using MetaboAnalyst software. Samples were loaded equivalently across the platform and normalized to Bradford values before statistical analysis.
# Pmel T cells [3] = conditions: activated in presence of H2S donor
# Procedure: Oxygen consumption rate (OCR) and extracellular acidification rate (ECAR) were determined using the Seahorse Xfe96 analyzer (Agilent Technologies, Santa Clara, CA). Briefly, T cells (0.5×10^6/well) were plated on a Cell-Tak coated Seahorse culture plate for 30 min. OCR, a measure of OXPHOS, was analyzed under basal condition, or in response to 1.0 μM oligomycin, 1.0 μM fluoro-carbonyl cyanide phenylhydrazone (FCCP) and 2 μM rotenone, plus 100 nM antimycin A. ECAR, a measure of glycolysis, was measured under basal conditions and in response to glucose (5.5 mM), Oligomycin (1.0 μM), and 2-deoxyglucose (2-DG) (100 mM). All reagents were purchased from Sigma-Aldrich, St. Louis, MO.
# [4] = in culture; cited from earlier work
# [5] = tested on: TILs isolated from B16-F10 tumors; conditions: expanded +/− GYY4137
# Procedure: To obtain tumor-infiltrating T cells (TILs) from subcutaneously established solid B16-F10 melanoma-bearing mice, tumors were excised, chopped finely using tweezers and scissors, and then digested with 2 mg/ml collagenase type IV (Stemcell Technologies, Vancouver, BC) for 45 min. The tumors were filtered through […] (BD Biosciences, San Jose, CA). The cell suspension was washed in culture medium twice by centrifugation at 1500 rpm for 10 min at 4° C. After the second wash, the cells were re-suspended in 6 ml PBS and layered carefully over 3 ml Ficoll-paque (GE Healthcare) followed by centrifugation at 1500 rpm for 30 min at room temperature. The enriched TILs obtained at the interface as a thin buffy layer were washed with PBS twice and finally re-suspended in FACS staining buffer for further staining procedures.
# Pmel T cells [6] = tested on: Pmel T cells
# Procedure: (FIG. 18C) NAD+ and nicotinamide quantification from metabolomics dataset. (FIG. 18D) SIRT1 deacetylase activity in activated Pmel T cells (means of normalized OD values). (FIGS. 18E and 18F) Pmel T cells were activated with gp100 for 3 days in the presence of vehicle, GYY4137 (0.5 mM), or GYY4137+sirt1 inhibitor EX527 (10 μM). (FIG. 18E) Nuclear and cytoplasmic protein fractions were isolated and western blot analysis was performed to determine relative expression of nuclear and cytoplasmic Foxo1 (n=3). (FIG. 18F) Expression of CD62L and CD44 analyzed by FACS (n=3). (FIG. 18G) Splenocytes from wildtype and Cbs-knockout mice+/−GYY4137 activated with anti-CD3 and anti-CD28 antibodies followed by intranuclear staining for Foxo1. (FIG. 18H) Pmel T cells activated and expanded for metabolic flux analysis. Quantification of oxygen consumption rate (OCR), spare respiratory capacity (SRC), maximal respiration, and basal respiration (n=10 experimental replicates representative of 3 separate experiments). (FIG. 18I) Pmel T cells activated and expanded to day 5 for characterization of mitochondria using FACS, quantified by MFI values for mitoFM Deep Red, TMRM, and mitoSOX dyes (n=4). (FIG. 18J) Representative confocal microscopy images of mitochondria from control or H2S-treated T cells. (FIG. 18K) Human CD19 CAR-T cells expanded for 3 days with IL2+/−0.5 mM GYY4137 and collected for metabolic flux analysis. Shown is the quantification of mean oxygen consumption rate (OCR), spare respiratory capacity (SRC), maximal respiration, and basal respiration.
# Alexa Fluor 488 (anti-Giantin) and Alexa Fluor 647 (anti-TOMM20) fluorescence were imaged in a Zeiss LSM 880 NLO inverted laser scanning confocal microscope (Thornwood, NY) using a 63× 1.4 N.A. plan-apochromat oil immersion lens. Alexa Fluor 488 and Alexa Fluor 647 were excited at 488 nm and 633 nm, respectively. Emitted light was detected with an Airyscan super-resolution detector at BP 495-550 nm for Giantin label and LP 654 nm for TOMM20. Z-stack Airyscan images were processed using the Huygens Professional deconvolution and image analysis software (Scientific Volume Imaging, The Netherland). After images were deconvolved using Huygens' Deconvolution Express (Standard Profile) that determines optimal parameters, 3D surface rendering of deconvolved images with watershed augmentation using Huygens' Surface Renderer was performed.
# Tet = conditions: CD8+ T cells with or without 0.5 mM GYY4137
# Procedure: On day 3, the cells were collected and TET activity was assessed using nuclear protein extract from CD8+ T cells treated with or without 0.5 mM GYY4137.
# Foxo1 = test: Nuclear vs cytoplasmic Foxo1 by western blot; type: cell-based, mouse; conditions: GYY4137 0.5 mM, 3 days
# Procedure: (FIG. 18C) NAD+ and nicotinamide quantification from metabolomics dataset.
# For evaluation of the protein level, cell pellets were washed in PBS and lysed in RIPA buffer (Thermo Fisher Scientific, Waltham, MA), including protease/phosphatase inhibitors, vortexed, and incubated for 20 minutes on ice. Cell lysates were then centrifuged at 12,000 rpm for 15 min at 4° C. The supernatants were collected, and proteins were quantified with a BCA protein assay kit (Thermo Fisher Scientific, Waltham, MA). For immunoblot analyses, 20 μg of protein lysates per sample were denatured in 4× Loading dye and boiled using a heating block at 95 degrees for 10 minutes before loading to SDS gradient gels 4%-20% (Bio-Rad Criterion, 1h runs). Gels were semi-dry transferred onto PVDF, and the membranes were blocked with 3% milk in 0.1% TBST. The membraneNext, the membrane was probed with the following primary antibodies: anti-Prdx4 (Proteintech, 10703-1-AP), anti-eIF2a (Cell Signaling Technology, #9722), or anti-β-Actin (Signaling Technology, #4967L) overnight at 4° C. followed by one-hour incubation with HRP-conjugated secondary antibody (Cell Signaling Technology, Danvers, MA) and using a Clarity Western ECL Substrate (Bio-Rad, Hercules, CA).
smiles,measurement,setting,value
C1COCCN1.COc1ccc(P(=S)(S)N2CCOCC2)cc1 (stereo not shown) [GYY4137],maintenance of increase in Tcm phenotype over time,"Pmel CD8+ T cells [1]; FACS at day 0, 2, 4, 6, GYY4137 0.5 mM",consistently maintained over six days
same,expression of Tcf7 and Sca1 (stemness markers),"Pmel CD8+ T cells [1]; GYY4137 0.5 mM, 3 days",significantly enhanced the expression of Tcf7 and Sca1
same,Tcm phenotype (CD62L+CD44+ co-expression),"Pmel CD8+ T cells [1]; Pmel T cells activated with gp100 + IL2, GYY4137 0.5 mM, compared to IL2 alone",significant increase in the Tcm phenotype
same,expression of Foxo1 (intranuclear staining),Cbs-KO T cells; Cbs-KO T cells +/− GYY4137,restored
same,ER stress (pPERK),"Cbs-KO T cells; Cbs-KO T cells, 12 hour Thapsigargin (700 nM)",reduced
same,Tcm fraction,Cbs-KO T cells; H2S added to Cbs-KO T cells,restoration of the Tcm fraction
same,Sirt1 activity,Sirt1,increased Sirt1 activity
same,levels of NAD+,Pmel CD8+ T cells [2],increased levels of NAD+
same,levels of nicotinamide,Pmel CD8+ T cells [2],decreased levels of nicotinamide
same,metabolite profile,Pmel CD8+ T cells [2],distinct profile of metabolites
same,basal respiration,Pmel T cells [3],did not alter basal respiration
same,maximal respiration,Pmel T cells [3],significant increase
same,spare respiratory capacity (SRC),Pmel T cells [3],significant increase
same,duration of sustained H2S release,[4],up to 7 days
same,GM130 expression,[5],significantly higher GM130 expression
same,PD1 expression,[5],lower PD1 expression
same,mitochondrial organization and morphology (confocal),Pmel T cells [6]; control vs H2S-treated,more compact and continuous mitochondria
same,mitochondrial mass (mitoFM staining),Pmel T cells [6]; expanded to day 5,increased overall mitochondrial mass
same,mitochondrial membrane potential (TMRM staining),Pmel T cells [6]; expanded to day 5,decreased mitochondrial membrane potential
same,mitochondrial reactive oxygen species (mitoSOX staining),Pmel T cells [6]; expanded to day 5,decreased mitochondrial reactive oxygen species
same,Tet activity,Tet,decrease of Tet activity
same,nuclear localization of Foxo1,Foxo1,increased nuclear localization of Foxo1
